The source of these data is ChEMBL document CHEMBL5233235, “Chalcone hybrids as privileged scaffolds in antimalarial drug discovery: A key review” (Eur J Med Chem, 2020).

Values after ≈ are worked out from the molar mass of the structure shown.

The test system of one data set is Plasmodium. As to the kind of experiment: Antimalarial activity against Plasmodium falciparum K1 by [3H]-hypoxanthine uptake assay. The format is functional, organism-based.
For data set [1], the system named is Plasmodium falciparum. As to the kind of experiment: Antimalarial activity against Plasmodium falciparum. The data set is classed as functional, organism-based.
The subject of data set [2] is Plasmodium falciparum. As to the kind of experiment: Antimalarial activity against chloroquine-sensitive Plasmodium falciparum 3D7. The format is functional, organism-based.
The test system of data set [3] is Plasmodium falciparum. As to the kind of experiment: Antimalarial activity against Plasmodium falciparum ATCC 30932 incubated for […]. The format is functional, organism-based.
A short description of data set [4]: Selectivity index, ratio of EC50 for cytotoxicity against mouse FM3A cells to EC50 for antimalarial activity against Plasmodium falciparum ATCC 30932. The format is toxicity, cell-based. As to conditions: read-out: Ratio EC50.
Data set [5] can be described thus: Cytotoxicity against mouse FM3A cells incubated for 48 hrs. The format is toxicity, cell-based.
The test system of data set [6] is Plasmodium falciparum. As to the kind of experiment: Antiparasitic activity against Plasmodium falciparum W2 incubated for 48 hrs by flow cytometry based analysis. The data set is classed as functional, organism-based. Particulars: W2, 48 h.
For data set [7], the system named is Plasmodium falciparum. As to the kind of experiment: Antiplasmodial activity against Plasmodium falciparum 3D7 incubated for 30 hrs followed by addition of [3H]-hypoxanthine and measured after 18 hrs by liquid scintillation counting method. The format is functional, organism-based.
A short description of data set [8]: Cytotoxicity against human HepG2 cells. The format is toxicity, cell-based.
For data set [9], the system named is Plasmodium falciparum. As to the kind of experiment: Antimalarial activity against chloroquine-resistant Plasmodium falciparum W2 incubated for 48 hrs by microscopic analysis. The format is functional, organism-based. As to conditions: W2, 48 h.
Data set [10] has as its system Plasmodium falciparum. As to the kind of experiment: Antimalarial activity against chloroquine-sensitive Plasmodium falciparum 3D7 by candle jar method. The data set is classed as functional, organism-based.
Data set [11] has as its system Plasmodium falciparum. As to the kind of experiment: Antimalarial activity against Plasmodium falciparum 3D7. The format is functional, organism-based.
Setting [12] is: Plasmodium falciparum, 3D7, read-out: IC50.

As to `COc1ccc(C(=O)/C=C/c2cnc3ccccc3c2)c(OC)c1`, the IC50 with Plasmodium is less than 5000 nM. Take `CCc1ccc(/C=C/C(=O)c2ccc(OC)cc2OC)cc1`: the IC50 with Plasmodium is less than 5000 nM.

In the case of `COc1ccc(/C=C/C(=O)c2ccc(OC)cc2OC)c(OC)c1`, the IC50 with Plasmodium was less than 5000 nM. In the data set on Plasmodium falciparum [1], `O=C(/C=C/c1c[nH]c2ccccc12)c1ccccc1O` had an IC50 of 2100 nM. For `O=C(/C=C/c1ccc([N+](=O)[O-])cc1)c1c(O)c2ccccc2oc1=O`, the IC50 in the data set on Plasmodium falciparum [2] is less than 5 µg/mL.

In the data set with Plasmodium falciparum [3], `COc1ccc(C(=O)/C=C/c2ccc(OC)c(OC)c2)c(O)c1` gave an EC50 of 1 µg/mL (≈ 3.18 µM). Also, the selectivity ratio in data set [4] was more than 3.3. For the same molecule, the half-maximal effective concentration (EC50) at 48 h in data set [5] was more than 3.3 µg/mL.

In turn, `O=C(/C=C/c1cc2ccccc2nc1Cl)c1cc(Br)cc(Cl)c1O` returned an MIC against Plasmodium falciparum [1] of 10 µg/mL (≈ 23.6 µM). In the data set on Plasmodium falciparum [1], `Cc1cccc(C(=O)/C=C(\I)c2cc3ccccc3nc2Cl)c1O` showed an MIC of 50 µg/mL (≈ 111 µM). In the data set on Plasmodium falciparum [6], `COc1cc(/C=C/C(=O)c2ccc(NS(=O)(=O)c3cc(Cl)ccc3Cl)cc2)cc(OC)c1OC` displayed an IC50 of 480 nM. For the molecule `CCO/C(C)=N/Oc1ccc(C(=O)/C=C/c2cc(OC)ccc2OC)cc1`, the IC50 in the data set on Plasmodium falciparum [7] (setting [12]) came to 6 µg/mL (≈ 16.2 µM). In the case of `CCO/C(C)=N/Oc1ccc(/C=C/C(=O)c2ccc3ccccc3c2)cc1`, the IC50 is 12 µg/mL (≈ 33.4 µM) with Plasmodium falciparum [7] (setting [12]) and 54 µg/mL (≈ 150 µM) in data set [8]. In the case of `O=C(/C=C/c1cccc(S(=O)(=O)N2CCOCC2)c1)c1ccccc1`, the IC50 with Plasmodium falciparum [9] worked out at 2060 nM. `COc1ccc(/C=C/C(=O)c2ccc(-n3ncc4ccccc43)cc2)c(OC)c1` yielded an IC50 in the data set with Plasmodium falciparum [10] of 1.1 µg/mL (≈ 2.86 µM). In the data set on Plasmodium falciparum [6], `O=C(/C=C/c1ccc(F)cc1F)c1ccc(NS(=O)(=O)c2cc(Cl)ccc2Cl)cc1` had an IC50 of 670 nM. As for `CCO/C(C)=N/Oc1ccc(C(=O)/C=C/c2cc(OC)c(OC)c(OC)c2)cc1`, the values for the IC50 (in the data set on Plasmodium falciparum [7] (setting [12]); in data set [8]) were 12 µg/mL (≈ 30 µM) and 20 µg/mL (≈ 50.1 µM), respectively.

The molecule `COc1ccc2nc(Cl)c(/C=C/C(=O)c3cc(Br)cc(Cl)c3O)cc2c1` returned an MIC against Plasmodium falciparum [1] of 10 µg/mL (≈ 22.1 µM). In the data set on Plasmodium falciparum [1], `COc1cc(/C=C/C(=O)c2c[n+]([O-])c3ccccc3[n+]2[O-])cc(OC)c1OC` registered an IC50 of 6200 nM. For the molecule `O=C(/C=C/c1ccc2ccccc2c1)c1c[n+]([O-])c2ccccc2[n+]1[O-]`, the IC50 with Plasmodium falciparum [1] is 5800 nM. As to `CCO/C(C)=N/Oc1ccc(C(=O)/C=C/c2ccc(OCc3ccccc3)cc2)cc1`, the IC50 in the data set with Plasmodium falciparum [7] (setting [12]) was 12 µg/mL (≈ 28.9 µM). `C[C@@H]1CC[C@H]2[C@@H](C)C(=O)O[C@@H]3O[C@@]4(C)CC[C@@H]1[C@]32OO4` [ARTEMISININ] showed an IC50 in the data set with Plasmodium falciparum [7] of 0.021 uM/ml.

Regarding `COc1ccc(C(=O)/C=C/c2ccc(O)c(O)c2)c(O)c1` [CALYTHROPSIN], the IC50 in the data set on Plasmodium falciparum [11] was 590 nM.
